Source: ChEMBL document CHEMBL3867463, “Cytotoxic lanostanes from fruits of Garcinia wallichii Choisy (Guttiferae)” (Bioorg Med Chem Lett, 2016)

Experiments:
[1] = Cytotoxicity against human colon cancer cells by SRB method; type: functional; conditions: Cancer cell lines, read-out: ED50 (the source's name)
[2] = Cytotoxicity against human HT-29 cells by SRB method; type: functional; conditions: read-out: ED50 (the source's name)
[3] = Cytotoxicity against mouse P388 cells by SRB method; type: functional; conditions: read-out: ED50 (the source's name)
[4] = Cytotoxicity against human MCF7 cells by SRB method; type: functional; conditions: read-out: ED50 (the source's name)
[5] = Cytotoxicity against human A549 cells by SRB method; type: functional; conditions: read-out: ED50 (the source's name)
[6] = Cytotoxicity against rat ASK cells by SRB method; type: functional; conditions: read-out: ED50 (the source's name)
[7] = Cytotoxicity against human KB cells by SRB method; type: functional; conditions: read-out: ED50 (the source's name)
[8] = Cytotoxicity against human HEK293 cells by SRB method; type: toxicity, cell-based; conditions: read-out: ED50 (the source's name)

SMILES | EC50 [1] | EC50 [2] | EC50 [3] | EC50 [4] | EC50 [5] | EC50 [6] | EC50 [7] | CC50 [8]
C/C(=C\C=C\[C@@H](C)[C@H]1CC[C@@]2(C)[C@@H]3CC[C@H]4C(C)(C)C(=O)CC[C@]4(C)[C@@]3(O)CC[C@]12C)C(=O)O | > 50 µM | > 50 µM | > 50 µM | > 50 µM | > 50 µM | > 50 µM | > 50 µM | > 50 µM
COC(=O)/C(C)=C/C=C/[C@@H](C)[C@H]1CC[C@@]2(C)[C@@H]3CC[C@H]4C(C)(C)[C@]5(O)CC[C@]4(CO5)[C@@]3(O)CC[C@]12C | > 50 µM | > 50 µM | > 50 µM | > 50 µM | > 50 µM | > 50 µM | > 50 µM | > 50 µM
C/C(=C\C=C\[C@@H](C)[C@H]1CC[C@@]2(C)[C@@H]3CC[C@H]4C(C)(C)[C@]5(O)CC[C@]4(CO5)[C@@]3(O)CC[C@]12C)C(=O)O | 4.73 µM | 5.39 µM | 3.91 µM | 6.19 µM | 5.69 µM | 7.63 µM | 4.79 µM | 6.89 µM
C/C(=C\CC[C@@H](C)[C@H]1CC[C@@]2(C)[C@@H]3CC[C@H]4C(C)(C)[C@@H](O)CC[C@]4(C)[C@@]3(O)CC[C@]12C)C(=O)O | > 50 µM | 23.7 µM | 24.1 µM | > 50 µM | 35.1 µM | > 50 µM | 29.9 µM | > 50 µM
COC(=O)/C(C)=C/C=C/[C@@H](C)[C@H]1CC[C@@]2(C)[C@@H]3CC[C@H]4C(C)(C)C(=O)CC[C@]4(C)C3=CC[C@]12C | > 50 µM | > 50 µM | > 50 µM | > 50 µM | > 50 µM | > 50 µM | > 50 µM | > 50 µM
C/C(=C\CC[C@@H](C)[C@H]1CC[C@@]2(C)[C@@H]3CC[C@H]4C(C)(C)C(=O)CC[C@]4(C)[C@@]3(O)CC[C@]12C)C(=O)O | > 50 µM | > 50 µM | > 50 µM | > 50 µM | > 50 µM | > 50 µM | > 50 µM | > 50 µM
Cc1c2ccncc2c(C)c2c1[nH]c1ccccc12 [ELLIPTECINE] | 2.19 µM | 2.43 µM | 2.15 µM | 2.11 µM | 1.26 µM | 2.31 µM | 2.03 µM | 2.03 µM
